Source: publication PMC9004391, “Cytochrome P450 Monooxygenase/Cytochrome P450 Reductase Bi-Enzymatic System Isolated From Ilex asprella for Regio-Specific Oxidation of Pentacyclic Triterpenoids” (Frontiers in Plant Science, 2022)

Experiments:
IaAO5 = molecular target: T1, IaAO5 (Ilex asprella, UniProt A0A976SHZ3); test: yeast metabolite analysis by GC-MS; type: cell-based; settings: S. cerevisiae WAT11tfA co-expressing IaAS2; C-24 oxidation to α-boswellic acid; not seen in strain WAT11tfAX
T1 construct: 515 aa ORF (1,545 bp); pESC-TRP in S. cerevisiae WAT11tfA co-expressing IaAS2
T1 sequence (A0A976SHZ3 1-514): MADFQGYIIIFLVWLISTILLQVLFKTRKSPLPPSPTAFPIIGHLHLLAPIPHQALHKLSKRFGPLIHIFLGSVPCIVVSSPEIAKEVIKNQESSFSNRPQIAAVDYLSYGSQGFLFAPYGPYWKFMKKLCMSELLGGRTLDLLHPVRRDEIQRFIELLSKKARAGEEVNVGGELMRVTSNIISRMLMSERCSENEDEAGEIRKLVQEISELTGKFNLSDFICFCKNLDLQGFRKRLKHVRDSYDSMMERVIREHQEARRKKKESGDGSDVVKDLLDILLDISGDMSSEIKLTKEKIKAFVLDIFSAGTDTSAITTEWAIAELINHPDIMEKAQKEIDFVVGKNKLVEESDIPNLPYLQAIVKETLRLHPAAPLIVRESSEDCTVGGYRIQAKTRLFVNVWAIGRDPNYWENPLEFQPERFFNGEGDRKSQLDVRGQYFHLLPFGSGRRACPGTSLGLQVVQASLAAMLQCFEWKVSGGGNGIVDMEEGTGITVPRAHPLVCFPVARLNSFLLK

IaCPR = tested on: T2, IaCPR; test: reductase activity by absorbance, microplate reader; type: biochemical, Ilex asprella; settings: electron acceptor for this constant, pH and temperature not printed in main text
T2 construct: full ORF 2,133 bp, 710 aa; pET32a (vector fusion tag), E. coli Transetta (DE3), Ni-NTA

IaAO4 = molecular target: T3, IaAO4 (Ilex asprella, UniProt A0A976SHZ5); test: yeast metabolite analysis by GC-MS; type: cell-based; settings: S. cerevisiae WAT11tfAX co-expressing IaAO1
T3 construct: 513 aa ORF (1,539 bp); pESC-URA in S. cerevisiae WAT11tfAX co-expressing IaAO1
T3 sequence (A0A976SHZ5 1-512): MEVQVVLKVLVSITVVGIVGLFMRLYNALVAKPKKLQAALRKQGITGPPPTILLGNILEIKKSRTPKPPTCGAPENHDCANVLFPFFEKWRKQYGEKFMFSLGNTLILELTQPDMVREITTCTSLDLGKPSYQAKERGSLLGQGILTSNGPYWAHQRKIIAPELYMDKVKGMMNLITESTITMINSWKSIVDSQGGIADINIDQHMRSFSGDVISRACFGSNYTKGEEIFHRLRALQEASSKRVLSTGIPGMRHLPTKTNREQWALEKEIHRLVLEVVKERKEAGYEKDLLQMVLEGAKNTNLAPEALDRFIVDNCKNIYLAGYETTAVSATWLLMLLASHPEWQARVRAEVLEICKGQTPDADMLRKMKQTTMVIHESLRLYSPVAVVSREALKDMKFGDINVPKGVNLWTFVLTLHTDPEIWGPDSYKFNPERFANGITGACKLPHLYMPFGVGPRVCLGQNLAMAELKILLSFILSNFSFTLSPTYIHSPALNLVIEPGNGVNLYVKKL

CC1(C)CC[C@]2(C)CC[C@]3(C)C(=CC[C@@H]4[C@@]5(C)CC[C@H](O)C(C)(C)[C@@H]5CC[C@]43C)[C@@H]2C1 [β-amyrin]
yeast metabolite analysis by GC-MS (IaAO5): catalyzes oxidation at the C-24 position of β-amyrin to yield α-Boswellic acid

NC(=O)C1=CN([C@@H]2O[C@H](COP(=O)(O)OP(=O)(O)OC[C@H]3O[C@@H](n4cnc5c(N)ncnc54)[C@H](OP(=O)(O)O)[C@@H]3O)[C@@H](O)[C@H]2O)C=CC1 [NADPH]
Km (IaCPR): 7.69 µM

CC1(C)CC[C@]2(C(=O)O)CC[C@]3(C)C(=CC[C@@H]4[C@@]5(C)CC[C@H](O)C(C)(C)[C@@H]5CC[C@]43C)[C@@H]2C1 [oleanolic acid]
yeast metabolite analysis by GC-MS (IaAO4; C-23 oxidation to hederagenin and gypsogenic acid): catalyzing the oxidation of both OA and UA at the C-23 position

C[C@H]1[C@H](C)CC[C@]2(C(=O)O)CC[C@]3(C)C(=CC[C@@H]4[C@@]5(C)CC[C@H](O)C(C)(C)[C@@H]5CC[C@]43C)[C@H]12 [ursolic acid]
yeast metabolite analysis by GC-MS (IaAO4; C-23 oxidation, products 23-hydroxyl- and 23-carboxyl-ursolic acid tentative): catalyzing the oxidation of both OA and UA at the C-23 position
